Laboratory results taken from ChEMBL document CHEMBL5518226, “A Vancomycin-Templated DNA-Encoded Library for Combating Drug-Resistant Bacteria” (2024).
In brackets after ≈: the same amount, converted by molar mass.

How the values were obtained:
Type in all cases: functional
Enterococcus faecium [1] = experiment: Antibacterial activity against vancomycin-resistant Enterococcus faecium 0649 assessed as reduction in bacterial growth by measuring fold change at 0.0625 to 64 ug/ml incubated for 24 hrs by CLSI protocol based broth microdilution method relative to vancomycin; settings: dose 0.0625-64 µg/ml
Staphylococcus aureus [2] = experiment: Antibacterial activity against vancomycin-intermediate resistant Staphylococcus aureus Mu50 assessed as reduction in bacterial growth by measuring fold change at 0.0625 to 64 ug/ml incubated for 24 hrs by CLSI protocol based broth microdilution method relative to vancomycin; settings: dose 0.0625-64 µg/ml
Enterococcus faecalis [3] = experiment: Antibacterial activity against Enterococcus faecalis clinical isolate 20-11 assessed as inhibition of bacterial growth incubated for 24 hrs by CLSI protocol based broth microdilution method
[4] = test system: Staphylococcus epidermidis; experiment: Antibacterial activity against methicillin resistant Staphylococcus epidermidis clinical isolate 20-1 assessed as inhibition of bacterial growth incubated for 24 hrs by CLSI protocol based broth microdilution method
Enterococcus faecium [5] = experiment: Antibacterial activity against Enterococcus faecium clinical isolate 20-15 assessed as inhibition of bacterial growth incubated for 24 hrs by CLSI protocol based broth microdilution method
Staphylococcus aureus [6] = experiment: Antibacterial activity against vancomycin-intermediate resistant Staphylococcus aureus ATCC700699 assessed as inhibition of bacterial growth incubated for 24 hrs by CLSI protocol based broth microdilution method
Enterococcus faecalis [7] = experiment: Antibacterial activity against vancomycin resistant Enterococcus faecalis clinical isolate 20-1 assessed as inhibition of bacterial growth incubated for 24 hrs by CLSI protocol based broth microdilution method
Staphylococcus aureus [8] = experiment: Antibacterial activity against methicillin sensitive Staphylococcus aureus clinical isolate 20-45 assessed as inhibition of bacterial growth incubated for 24 hrs by CLSI protocol based broth microdilution method
[9] = test system: Staphylococcus epidermidis; experiment: Antibacterial activity against methicillin sensitive Staphylococcus epidermidis clinical isolate 20-1 assessed as inhibition of bacterial growth incubated for 24 hrs by CLSI protocol based broth microdilution method
Streptococcus pneumoniae [10] = experiment: Antibacterial activity against Streptococcus pneumoniae ATCC49619 assessed as inhibition of bacterial growth incubated for 24 hrs by CLSI protocol based broth microdilution method
Staphylococcus aureus [11] = experiment: Antibacterial activity against methicillin sensitive Staphylococcus aureus ATCC29213 assessed as inhibition of bacterial growth incubated for 24 hrs by CLSI protocol based broth microdilution method
Staphylococcus aureus [12] = experiment: Antibacterial activity against methicillin sensitive Staphylococcus aureus Newman assessed as inhibition of bacterial growth incubated for 24 hrs by CLSI protocol based broth microdilution method
Enterococcus faecium [13] = experiment: Antibacterial activity against Enterococcus faecium clinical isolate 20-16 assessed as inhibition of bacterial growth incubated for 24 hrs by CLSI protocol based broth microdilution method
Streptococcus pneumoniae [14] = experiment: Antibacterial activity against penicillin susceptible Streptococcus pneumoniae clinical isolate 20-1 assessed as inhibition of bacterial growth incubated for 24 hrs by CLSI protocol based broth microdilution method
Staphylococcus aureus [15] = experiment: Antibacterial activity against methicillin resistant Staphylococcus aureus USA300 assessed as inhibition of bacterial growth incubated for 24 hrs by CLSI protocol based broth microdilution method

Structure (SMILES): CN[C@H](CC(C)C)C(=O)N[C@H]1C(=O)N[C@@H](CC(N)=O)C(=O)N[C@H]2C(=O)N[C@H]3C(=O)N[C@H](C(=O)N[C@H](C(=O)O)c4cc(O)cc(O)c4-c4cc3ccc4O)[C@H](O)c3ccc(c(Cl)c3)Oc3cc2cc(c3O[C@@H]2O[C@H](CO)[C@@H](O)[C@H](O)[C@H]2O[C@H]2C[C@](C)(NCCCc3cn(-c4cccc(NC(=O)OC(C)(C)C)c4)nn3)[C@H](O)[C@H](C)O2)Oc2ccc(cc2Cl)[C@H]1O
- fold change (FC) (Enterococcus faecium [1]): 8
- fold change (FC) (Staphylococcus aureus [2]): 8

Structure (SMILES): CN[C@H](CC(C)C)C(=O)N[C@H]1C(=O)N[C@@H](CC(N)=O)C(=O)N[C@H]2C(=O)N[C@H]3C(=O)N[C@H](C(=O)N[C@H](C(=O)O)c4cc(O)cc(O)c4-c4cc3ccc4O)[C@H](O)c3ccc(c(Cl)c3)Oc3cc2cc(c3O[C@@H]2O[C@H](CO)[C@@H](O)[C@H](O)[C@H]2O[C@H]2C[C@](C)(NCCCc3cn(-c4ccc(OC(F)F)cc4)nn3)[C@H](O)[C@H](C)O2)Oc2ccc(cc2Cl)[C@H]1O
- fold change (FC) (Enterococcus faecium [1]): 8
- fold change (FC) (Staphylococcus aureus [2]): 8

Structure (SMILES): CN[C@H](CC(C)C)C(=O)N[C@H]1C(=O)N[C@@H](CC(N)=O)C(=O)N[C@H]2C(=O)N[C@H]3C(=O)N[C@H](C(=O)N[C@H](C(=O)O)c4cc(O)cc(O)c4-c4cc3ccc4O)[C@H](O)c3ccc(c(Cl)c3)Oc3cc2cc(c3O[C@@H]2O[C@H](CO)[C@@H](O)[C@H](O)[C@H]2O[C@H]2C[C@](C)(NCCCc3cn(Cc4ccc(Cl)c(Cl)c4)nn3)[C@H](O)[C@H](C)O2)Oc2ccc(cc2Cl)[C@H]1O
- MIC (Enterococcus faecalis [3]): ≤ 0.03 µg/mL
- MIC [4]: 0.06 µg/mL (≈ 0.0349 µM)
- MIC (Enterococcus faecium [5]): ≤ 0.03 µg/mL
- MIC (Staphylococcus aureus [6]): 0.125 µg/mL (≈ 0.0728 µM)
- MIC (Enterococcus faecalis [7]): 4 µg/mL (≈ 2.33 µM)
- fold change (FC) (Enterococcus faecium [1]): 8
- MIC (Staphylococcus aureus [8]): ≤ 0.03 µg/mL
- MIC [9]: ≤ 0.03 µg/mL
- fold change (FC) (Staphylococcus aureus [2]): 8
- MIC (Streptococcus pneumoniae [10]): ≤ 0.03 µg/mL
- MIC (Staphylococcus aureus [11]): ≤ 0.03 µg/mL
- MIC (Staphylococcus aureus [12]): ≤ 0.015 µg/mL
- MIC (Enterococcus faecium [13]): ≤ 0.03 µg/mL
- MIC (Streptococcus pneumoniae [14]): ≤ 0.03 µg/mL
- MIC (Staphylococcus aureus [15]): ≤ 0.015 µg/mL

Structure (SMILES): CN[C@H](CC(C)C)C(=O)N[C@H]1C(=O)N[C@@H](CC(N)=O)C(=O)N[C@H]2C(=O)N[C@H]3C(=O)N[C@H](C(=O)N[C@H](C(=O)O)c4cc(O)c(CN(C)Cc5cn(-c6cccc(NC(=O)OC(C)(C)C)c6)nn5)c(O)c4-c4cc3ccc4O)[C@H](O)c3ccc(c(Cl)c3)Oc3cc2cc(c3O[C@@H]2O[C@H](CO)[C@@H](O)[C@H](O)[C@H]2O[C@H]2C[C@](C)(NCc3cccc(-c4cc(F)ccc4F)n3)[C@H](O)[C@H](C)O2)Oc2ccc(cc2Cl)[C@H]1O
- fold change (FC) (Enterococcus faecium [1]): 8

Structure (SMILES): CN[C@H](CC(C)C)C(=O)N[C@H]1C(=O)N[C@@H](CC(N)=O)C(=O)N[C@H]2C(=O)N[C@H]3C(=O)N[C@H](C(=O)N[C@H](C(=O)O)c4cc(O)c(CN(C)Cc5cn(-c6cccc(NC(=O)OC(C)(C)C)c6)nn5)c(O)c4-c4cc3ccc4O)[C@H](O)c3ccc(c(Cl)c3)Oc3cc2cc(c3O[C@@H]2O[C@H](CO)[C@@H](O)[C@H](O)[C@H]2O[C@H]2C[C@](C)(NCc3ccccc3-c3ccccc3)[C@H](O)[C@H](C)O2)Oc2ccc(cc2Cl)[C@H]1O
- fold change (FC) (Enterococcus faecium [1]): 8

Structure (SMILES): CN[C@H](CC(C)C)C(=O)N[C@H]1C(=O)N[C@@H](CC(N)=O)C(=O)N[C@H]2C(=O)N[C@H]3C(=O)N[C@H](C(=O)N[C@H](C(=O)O)c4cc(O)cc(O)c4-c4cc3ccc4O)[C@H](O)c3ccc(c(Cl)c3)Oc3cc2cc(c3O[C@@H]2O[C@H](CO)[C@@H](O)[C@H](O)[C@H]2O[C@H]2C[C@](C)(NCc3ccc(-c4ccc(C(F)(F)F)cc4)cc3)[C@H](O)[C@H](C)O2)Oc2ccc(cc2Cl)[C@H]1O
- fold change (FC) (Enterococcus faecium [1]): 16
- fold change (FC) (Staphylococcus aureus [2]): 8

Structure (SMILES): CN[C@H](CC(C)C)C(=O)N[C@H]1C(=O)N[C@@H](CC(N)=O)C(=O)N[C@H]2C(=O)N[C@H]3C(=O)N[C@H](C(=O)N[C@H](C(=O)O)c4cc(O)cc(O)c4-c4cc3ccc4O)[C@H](O)c3ccc(c(Cl)c3)Oc3cc2cc(c3O[C@@H]2O[C@H](CO)[C@@H](O)[C@H](O)[C@H]2O[C@H]2C[C@](C)(NCCCc3cn(C4CN(C(c5ccccc5)c5ccccc5)C4)nn3)[C@H](O)[C@H](C)O2)Oc2ccc(cc2Cl)[C@H]1O
- MIC (Enterococcus faecalis [3]): 0.06 µg/mL (≈ 0.0337 µM)
- MIC (Enterococcus faecium [5]): ≤ 0.03 µg/mL
- MIC (Staphylococcus aureus [6]): 0.5 µg/mL (≈ 0.281 µM)
- MIC (Enterococcus faecalis [7]): 8 µg/mL (≈ 4.5 µM)
- fold change (FC) (Enterococcus faecium [1]): 8
- MIC (Staphylococcus aureus [8]): ≤ 0.03 µg/mL
- MIC [9]: ≤ 0.03 µg/mL
- fold change (FC) (Staphylococcus aureus [2]): 8
- MIC (Streptococcus pneumoniae [10]): ≤ 0.03 µg/mL
- MIC (Staphylococcus aureus [11]): ≤ 0.03 µg/mL
- MIC (Staphylococcus aureus [12]): ≤ 0.015 µg/mL
- MIC (Enterococcus faecium [13]): ≤ 0.03 µg/mL
- MIC (Streptococcus pneumoniae [14]): ≤ 0.03 µg/mL
- MIC (Staphylococcus aureus [15]): ≤ 0.015 µg/mL

Structure (SMILES): CN[C@H](CC(C)C)C(=O)N[C@H]1C(=O)N[C@@H](CC(N)=O)C(=O)N[C@H]2C(=O)N[C@H]3C(=O)N[C@H](C(=O)N[C@H](C(=O)O)c4cc(O)cc(O)c4-c4cc3ccc4O)[C@H](O)c3ccc(c(Cl)c3)Oc3cc2cc(c3O[C@@H]2O[C@H](CO)[C@@H](O)[C@H](O)[C@H]2O[C@H]2C[C@](C)(NCc3ccc(Cl)cc3Cl)[C@H](O)[C@H](C)O2)Oc2ccc(cc2Cl)[C@H]1O
- fold change (FC) (Enterococcus faecium [1]): 8

Structure (SMILES): CN[C@H](CC(C)C)C(=O)N[C@H]1C(=O)N[C@@H](CC(N)=O)C(=O)N[C@H]2C(=O)N[C@H]3C(=O)N[C@H](C(=O)N[C@H](C(=O)O)c4cc(O)c(CN(C)Cc5cn(-c6cccc(NC(=O)OC(C)(C)C)c6)nn5)c(O)c4-c4cc3ccc4O)[C@H](O)c3ccc(c(Cl)c3)Oc3cc2cc(c3O[C@@H]2O[C@H](CO)[C@@H](O)[C@H](O)[C@H]2O[C@H]2C[C@](C)(NCc3ccccc3Oc3ccccc3)[C@H](O)[C@H](C)O2)Oc2ccc(cc2Cl)[C@H]1O
- fold change (FC) (Enterococcus faecium [1]): 8

Structure (SMILES): CN[C@H](CC(C)C)C(=O)N[C@H]1C(=O)N[C@@H](CC(N)=O)C(=O)N[C@H]2C(=O)N[C@H]3C(=O)N[C@H](C(=O)N[C@H](C(=O)O)c4cc(O)cc(O)c4-c4cc3ccc4O)[C@H](O)c3ccc(c(Cl)c3)Oc3cc2cc(c3O[C@@H]2O[C@H](CO)[C@@H](O)[C@H](O)[C@H]2O[C@H]2C[C@](C)(NCc3ccc(Oc4cc(Cl)cc(Cl)c4)cc3)[C@H](O)[C@H](C)O2)Oc2ccc(cc2Cl)[C@H]1O
- MIC (Enterococcus faecalis [3]): ≤ 0.015 µg/mL
- MIC (Enterococcus faecium [5]): ≤ 0.015 µg/mL
- MIC (Staphylococcus aureus [6]): 0.125 µg/mL (≈ 0.0735 µM)
- MIC (Enterococcus faecalis [7]): 4 µg/mL (≈ 2.35 µM)
- fold change (FC) (Enterococcus faecium [1]): 16
- MIC (Staphylococcus aureus [8]): ≤ 0.015 µg/mL
- MIC [9]: ≤ 0.015 µg/mL
- fold change (FC) (Staphylococcus aureus [2]): 8
- MIC (Streptococcus pneumoniae [10]): ≤ 0.015 µg/mL
- MIC (Staphylococcus aureus [11]): ≤ 0.015 µg/mL
- MIC (Staphylococcus aureus [12]): ≤ 0.06 µg/mL
- MIC (Enterococcus faecium [13]): 0.03 µg/mL (≈ 0.0176 µM)
- MIC (Streptococcus pneumoniae [14]): ≤ 0.015 µg/mL
- MIC (Staphylococcus aureus [15]): ≤ 0.06 µg/mL

Structure (SMILES): CN[C@H](CC(C)C)C(=O)N[C@H]1C(=O)N[C@@H](CC(N)=O)C(=O)N[C@H]2C(=O)N[C@H]3C(=O)N[C@H](C(=O)N[C@H](C(=O)O)c4cc(O)cc(O)c4-c4cc3ccc4O)[C@H](O)c3ccc(c(Cl)c3)Oc3cc2cc(c3O[C@@H]2O[C@H](CO)[C@@H](O)[C@H](O)[C@H]2O[C@H]2C[C@](C)(NCc3ccc(-c4ccccc4)s3)[C@H](O)[C@H](C)O2)Oc2ccc(cc2Cl)[C@H]1O
- fold change (FC) (Enterococcus faecium [1]): 16
- fold change (FC) (Staphylococcus aureus [2]): 8
